In general, IC50 refers to the concentration that gives 50% inhibition.

This assay can be described thus: DPPH radical scavenging activity after 180 mins. The format is functional.
Compound `O=C(O)c1cc(O)c(O)c(O)c1` [GALLIC ACID] showed an IC50 of 8 µM.

Consider `O=C(O)C[C@H]1CCC(=O)[C@@H]1C/C=C\CCO[C@@H]1O[C@H](COC(=O)c2cc(O)c(O)c(O)c2)[C@@H](O)[C@H](O)[C@H]1O`, for which the IC50 was 11.2 µM. To `C=CCc1cc(OC)c(O)c(O[C@@H]2O[C@H](COC(=O)/C=C/c3cc(OC)c(O)c(OC)c3)[C@@H](O)[C@H](O)[C@H]2O)c1` belongs 15 µM; to `C=CCc1ccc(O)c(OC)c1` [EUGENOL], 27.5 µM; to `CC1=CC[C@@H](C(C)(C)O[C@@H]2O[C@H](CO[C@@H]3O[C@@H](CO)[C@H](O)[C@H]3OC(=O)c3cc(O)c(O)c(O)c3)[C@@H](O)[C@H](O)[C@H]2O)CC1`, 10.5 µM. In turn, `CC1=CC[C@H](C(C)(C)O[C@@H]2O[C@H](CO[C@@H]3O[C@@H](CO)[C@H](O)[C@H]3OC(=O)c3cc(O)c(O)c(O)c3)[C@@H](O)[C@H](O)[C@H]2O)CC1` yielded an IC50 of 11.6 µM. In turn, `COc1cc(/C=C/C(=O)O)cc(OC)c1O` [SINAPINATE] had an IC50 of 25.7 µM.

These data come from ChEMBL document CHEMBL1149863, “Phenolic glycosides from berries of Pimenta dioica” (J Nat Prod, 2008).
